Measurements from ChEMBL document CHEMBL5579851, “Synthesis and antifungal evaluation of novel triazole derivatives bearing a pyrazole-methoxyl moiety” (Eur J Med Chem, 2024).
≈ marks a conversion by molar mass, not a printed value. Calls of active or inactive are those of the source. The calls are words filed in the database; no cut-off is given here.

Key:
Candida albicans [1] = test: Antibiofilm activity against Candida albicans SC5314 assessed as inhibition of biofilm formation at 64 ug/mL incubated for 24 hrs by XTT assay relative to control; assay type: functional
Saccharomyces cerevisiae [2] = test: Antifungal activity against recombinant Saccharomyces cerevisiae Y2301 overexpressing ScErg11 Y140F mutant assessed as inhibition of fungal growth incubated for 48 hrs by CLSI based broth microdilution assay; assay type: functional
Candida albicans [3] = test: Antifungal activity against Candida albicans SC5314 assessed as inhibition of fungal growth at 0.125 ug/ml after 12 hrs by TECAN plate reader analysis; assay type: functional, organism-based; conditions: dose 0.125 µg/ml
Saccharomyces cerevisiae [4] = test: Antifungal activity against recombinant Saccharomyces cerevisiae Y570 overexpressing CaCdr1 assessed as inhibition of fungal growth incubated for 48 hrs by CLSI based broth microdilution assay; assay type: functional
Saccharomyces cerevisiae [5] = test: Antifungal activity against recombinant Saccharomyces cerevisiae Y2716 overexpressing CpErg11 Y132F mutant/ CpCpr assessed as inhibition of fungal growth incubated for 48 hrs by CLSI based broth microdilution assay; assay type: functional
Candida tropicalis = test: Antifungal activity against Candida tropicalis 8915 assessed as inhibition of fungal growth incubated for 48 hrs by CLSI based broth microdilution assay; assay type: functional
[6] = target: T1, Lanosterol 14-alpha demethylase (Candida albicans (strain SC5314 / ATCC MYA-2876) (Yeast), UniProt P10613); test: Inhibition of CYP51 in Candida albicans SC5314 assessed as ergosterol level at 0.5 ug/ml after 8 hrs by GC-MS analysis (reference value: 86.2 %); design: scale not given: the % may be the effect or the level left; conditions: at 0.5 µg/mL
T1 sequence (P10613 whole entry): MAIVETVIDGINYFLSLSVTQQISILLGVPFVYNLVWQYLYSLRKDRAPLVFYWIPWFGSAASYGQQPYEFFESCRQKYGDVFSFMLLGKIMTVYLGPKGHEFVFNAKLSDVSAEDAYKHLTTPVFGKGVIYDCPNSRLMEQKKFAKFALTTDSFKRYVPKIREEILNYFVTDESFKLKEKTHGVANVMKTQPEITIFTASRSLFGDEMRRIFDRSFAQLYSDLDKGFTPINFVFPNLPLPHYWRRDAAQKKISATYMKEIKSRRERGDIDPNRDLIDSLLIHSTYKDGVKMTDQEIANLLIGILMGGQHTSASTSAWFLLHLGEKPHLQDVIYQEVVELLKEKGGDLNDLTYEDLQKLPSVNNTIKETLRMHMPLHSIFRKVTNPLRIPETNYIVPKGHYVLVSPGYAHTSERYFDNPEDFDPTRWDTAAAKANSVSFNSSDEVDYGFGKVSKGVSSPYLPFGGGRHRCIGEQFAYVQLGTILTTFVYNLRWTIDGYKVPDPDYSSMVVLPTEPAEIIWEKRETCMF

Candida albicans [7] = test: Antibiofilm activity against Candida albicans SC5314 assessed as increase in matured biofilm distruption at 64 ug/ml incubated for 24 hrs by XTT assay relative to control; assay type: functional; conditions: dose 64 µg/ml
[8] = target: T1, Lanosterol 14-alpha demethylase; test: Inhibition of CYP51 in Candida albicans SC5314 assessed as obtusifoliol level at 0.5 ug/ml after 8 hrs by GC-MS analysis relative to control; design: scale not given: the % may be the effect or the level left; conditions: at 0.5 µg/mL
Saccharomyces cerevisiae [9] = test: Antifungal activity against recombinant Saccharomyces cerevisiae Y2374 overexpressing CgErg11 assessed as inhibition of fungal growth incubated for 48 hrs by CLSI based broth microdilution assay; assay type: functional
Saccharomyces cerevisiae [10] = test: Antifungal activity against recombinant Saccharomyces cerevisiae Y2459 overexpressing CaErg11/CaCpr assessed as inhibition of fungal growth incubated for 48 hrs by CLSI based broth microdilution assay; assay type: functional
[Candida] auris [11] = Antifungal activity against fluconazole-resistant Candida auris 891 assessed as inhibition of fungal growth incubated for 48 hrs by CLSI based broth microdilution assay; assay type: functional; conditions: Candidozyma auris
Saccharomyces cerevisiae [12] = test: Antifungal activity against recombinant Saccharomyces cerevisiae Y2767 overexpressing CauErg11 assessed as inhibition of fungal growth incubated for 48 hrs by CLSI based broth microdilution assay; assay type: functional
Saccharomyces cerevisiae [13] = test: Antifungal activity against recombinant Saccharomyces cerevisiae Y2765 overexpressing CauMdr1 assessed as inhibition of fungal growth incubated for 48 hrs by CLSI based broth microdilution assay; assay type: functional
Candida albicans [14] = test: Antifungal activity against Candida albicans SC5314 assessed as inhibition of hyphae formation by measuring pseudohyphae at 1 ug/ml after 3 hrs by inverted microscopic analysis; assay type: functional, organism-based; conditions: dose 1.0 µg/ml
Saccharomyces cerevisiae [15] = test: Antifungal activity against recombinant Saccharomyces cerevisiae Y2769 overexpressing CauErg11 K143R mutant assessed as inhibition of fungal growth incubated for 48 hrs by CLSI based broth microdilution assay; assay type: functional
Saccharomyces cerevisiae [16] = test: Antifungal activity against recombinant Saccharomyces cerevisiae Y2411 overexpressing ScErg11 assessed as inhibition of fungal growth incubated for 48 hrs by CLSI based broth microdilution assay; assay type: functional
Saccharomyces cerevisiae [17] = test: Antifungal activity against recombinant Saccharomyces cerevisiae Y525 overexpressing CaMdr1 assessed as inhibition of fungal growth incubated for 48 hrs by CLSI based broth microdilution assay; assay type: functional
Cell membrane [18] = test: Induction of membrane permeabilization in Candida albicans SC5314 assessed as increase in fluorescence at 0.5 ug/ml incubated for 8 hrs by propidium iodide staining based fluorescence microscopic analysis; conditions: dose 0.5 µg/ml
Candida albicans [19] = test: Antifungal activity against Candida albicans 10231 assessed as inhibition of fungal growth incubated for 48 hrs by CLSI based broth microdilution assay; assay type: functional
Pichia kudriavzevii = test: Antifungal activity against Candida krusei 4996 assessed as inhibition of fungal growth incubated for 48 hrs by CLSI based broth microdilution assay; assay type: functional
Saccharomyces cerevisiae [20] = test: Antifungal activity against recombinant Saccharomyces cerevisiae Y2766 overexpressing CauCdr1 assessed as inhibition of fungal growth incubated for 48 hrs by CLSI based broth microdilution assay; assay type: functional
[Candida] auris [21] = Antifungal activity against fluconazole-resistant Candida auris 918 assessed as inhibition of fungal growth incubated for 48 hrs by CLSI based broth microdilution assay; assay type: functional; conditions: Candidozyma auris
Candida albicans [22] = test: Antifungal activity against Candida albicans SC5314 assessed as inhibition of fungal growth incubated for 48 hrs by CLSI based broth microdilution assay; assay type: functional
Cryptococcus neoformans = test: Antifungal activity against Cryptococcus neoformans 32609 assessed as inhibition of fungal growth incubated for 72 hrs by CLSI based broth microdilution assay; assay type: functional
Candida albicans [23] = test: Antifungal activity against Candida albicans SC5314 assessed as inhibition of hyphae length at 1 ug/ml after 3 hrs by inverted microscopic analysis; assay type: functional, organism-based; conditions: dose 1.0 µg/ml
[24] = target: T1, Lanosterol 14-alpha demethylase; test: Inhibition of CYP51 in Candida albicans SC5314 assessed as 14alpha-methylfecosterol level at 0.5 ug/ml after 8 hrs by GC-MS analysis relative to control; design: scale not given: the % may be the effect or the level left; conditions: at 0.5 µg/mL
Saccharomyces cerevisiae [25] = test: Antifungal activity against recombinant Saccharomyces cerevisiae Y2300 overexpressing ScErg11 assessed as inhibition of fungal growth incubated for 48 hrs by CLSI based broth microdilution assay; assay type: functional
Saccharomyces cerevisiae [26] = test: Antifungal activity against recombinant Saccharomyces cerevisiae Y2513 overexpressing ScErg11 Y140H mutant assessed as inhibition of fungal growth incubated for 48 hrs by CLSI based broth microdilution assay; assay type: functional
Candida albicans [27] = test: Antifungal activity against fluconazole-resistant Candida albicans 901 assessed as inhibition of fungal growth incubated for 48 hrs by CLSI based broth microdilution assay; assay type: functional
[Candida] auris [28] = Antifungal activity against fluconazole-resistant Candida auris 919 assessed as inhibition of fungal growth incubated for 48 hrs by CLSI based broth microdilution assay; assay type: functional; conditions: Candidozyma auris
Cell membrane [29] = test: Induction of membrane permeabilization in Candida albicans SC5314 assessed as increase in fluorescence at 4 ug/ml incubated for 8 hrs by propidium iodide staining based fluorescence microscopic analysis; conditions: dose 4.0 µg/ml
Candida albicans [30] = test: Antifungal activity against Candida albicans SC5314 assessed as inhibition of hyphae formation at 0.0625 to 0.5 ug/ml after 3 hrs by inverted microscopic analysis; assay type: functional, organism-based; conditions: dose 0.0625-0.5 µg/ml
Saccharomyces cerevisiae [31] = test: Antifungal activity against recombinant Saccharomyces cerevisiae Y2462 overexpressing ScErg11/ScNcp1 assessed as inhibition of fungal growth incubated for 48 hrs by CLSI based broth microdilution assay; assay type: functional
Candida albicans [32] = test: Antifungal activity against Candida albicans SC5314 assessed as inhibition of hyphae length at 0.0625 to 0.5 ug/ml after 3 hrs by inverted microscopic analysis; assay type: functional, organism-based; conditions: dose 0.0625-0.5 µg/ml
[33] = Cytotoxicity against HUVEC cells assessed as cell viability at 128 ug/ml incubated for 24 hrs by CCK-8 assay relative to control; assay type: toxicity, cell-based; conditions: human, at 128 µg/mL, read-out: Activity
Saccharomyces cerevisiae [34] = test: Antifungal activity against recombinant Saccharomyces cerevisiae Y2711 overexpressing CnErg11 assessed as inhibition of fungal growth incubated for 48 hrs by CLSI based broth microdilution assay; assay type: functional
[35] = target: T1, Lanosterol 14-alpha demethylase; test: Inhibition of CYP51 in Candida albicans SC5314 assessed as eburicol level at 0.5 ug/ml after 8 hrs by GC-MS analysis relative to control; design: scale not given: the % may be the effect or the level left; conditions: at 0.5 µg/mL
Saccharomyces cerevisiae [36] = test: Antifungal activity against recombinant Saccharomyces cerevisiae Y2768 overexpressing CauErg11 T132F mutant assessed as inhibition of fungal growth incubated for 48 hrs by CLSI based broth microdilution assay; assay type: functional
Saccharomyces cerevisiae [37] = test: Antifungal activity against recombinant Saccharomyces cerevisiae Y2721 overexpressing CpErg11/CpCpr assessed as inhibition of fungal growth incubated for 48 hrs by CLSI based broth microdilution assay; assay type: functional
Candida albicans [38] = test: Antifungal activity against Candida albicans SC5314 assessed as inhibition of fungal growth at 2 ug/ml after 36 hrs by TECAN plate reader analysis; assay type: functional, organism-based; conditions: dose 2.0 µg/ml
[39] = target: T1, Lanosterol 14-alpha demethylase; test: Inhibition of CYP51 in Candida albicans SC5314 assessed as lanosterol level at 0.5 ug/ml after 8 hrs by GC-MS analysis (reference value: 5.9 %); design: scale not given: the % may be the effect or the level left; conditions: at 0.5 µg/mL
Candida albicans [40] = test: Antifungal activity against fluconazole-resistant Candida albicans 904 assessed as inhibition of fungal growth incubated for 48 hrs by CLSI based broth microdilution assay; assay type: functional
Candida parapsilosis = test: Antifungal activity against Candida parapsilosis 22019 assessed as inhibition of fungal growth incubated for 48 hrs by CLSI based broth microdilution assay; assay type: functional; conditions: Lodderomyces parapsilosis
Nakaseomyces glabratus = test: Antifungal activity against Candida glabrata 537 assessed as inhibition of fungal growth incubated for 48 hrs by CLSI based broth microdilution assay; assay type: functional

OC(Cn1cncn1)(Cn1cncn1)c1ccc(F)cc1F [FLUCONAZOLE]
inhibition at 64 µg/mL (Candida albicans [1]): ~28% | MIC (Saccharomyces cerevisiae [2]): 4 µg/mL | inhibition (Candida albicans [3]): inactive | MIC (Saccharomyces cerevisiae [4]): > 64 µg/mL | MIC (Saccharomyces cerevisiae [5]): 8 µg/mL | MIC (Candida tropicalis): > 64 µg/mL | Activity [6]: 39.8% | Activity (Candida albicans [7]): 38% | Activity [8]: 2% | MIC (Saccharomyces cerevisiae [9]): 4 µg/mL | MIC (Saccharomyces cerevisiae [10]): 2 µg/mL | MIC ([Candida] auris [11]): > 256 µg/mL | MIC (Saccharomyces cerevisiae [12]): 4 µg/mL | MIC (Saccharomyces cerevisiae [13]): 64 µg/mL | inhibition (Candida albicans [14]): Active | MIC (Saccharomyces cerevisiae [15]): 32 µg/mL | MIC (Saccharomyces cerevisiae [16]): 1 µg/mL | MIC (Saccharomyces cerevisiae [17]): > 64 µg/mL | Activity (Cell membrane [18]): inactive | MIC (Candida albicans [19]): > 64 µg/mL | MIC (Pichia kudriavzevii): 64 µg/mL (≈ 209 µM) | MIC (Saccharomyces cerevisiae [20]): > 64 µg/mL | MIC ([Candida] auris [21]): > 256 µg/mL | MIC (Candida albicans [22]): 0.5 µg/mL (≈ 1.63 µM) | MIC (Cryptococcus neoformans): 2 µg/mL (≈ 6.53 µM) | inhibition (Candida albicans [23]): Active | Activity [24]: 20% | MIC (Saccharomyces cerevisiae [25]): 4 µg/mL | MIC (Saccharomyces cerevisiae [26]): 4 µg/mL | MIC (Candida albicans [27]): > 256 µg/mL | MIC ([Candida] auris [28]): > 256 µg/mL | Activity (Cell membrane [29]): Active | inhibition (Candida albicans [30]): inactive | MIC (Saccharomyces cerevisiae [31]): 8 µg/mL | inhibition (Candida albicans [32]): inactive | viability at 24 h, 128 ug/ml [33]: 83% | MIC (Saccharomyces cerevisiae [34]): 0.5 µg/mL | Activity [35]: 2% | MIC (Saccharomyces cerevisiae [36]): 64 µg/mL | MIC (Saccharomyces cerevisiae [37]): 4 µg/mL | inhibition (Candida albicans [38]): inactive | Activity [39]: 38% | MIC (Candida albicans [40]): > 256 µg/mL | MIC (Candida parapsilosis): 4 µg/mL (≈ 13.1 µM) | MIC (Nakaseomyces glabratus): 1 µg/mL (≈ 3.27 µM)
